Test results taken from USRE37781E1, “Substituted cyclic carbonyls and derivatives thereof useful as retroviral protease inhibitors” (DuPont Pharmaceuticals Company, priority 1991, dated 2002).
pKi: −log10 of the molar value. ≈ marks a conversion by molar mass, not a printed value. Read-outs that look alike come from different tables or passages of the source.

What was measured:
[1] = biological target: single-chain tethered dimer of HIV protease (Human immunodeficiency virus 1, UniProt P04585); test: biochemical; assay type: biochemical; design: fused on or other part: A second copy of the same protease unit is joined to the first by a short peptide tether, giving one polypeptide; details: read-out: HPLC K1, Table 2d
HIV-1 (RF) in MT-2 cells = test: microbe, parasite or virus in culture; assay type: cell-based; details: Human immunodeficiency virus 1, MT2, 48 h, Table 2d, read-out: IC90
Summary of the method: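 Read-out: gag and pol viral RNA captured by 5′-biotinylated oligonucleotides on streptavidin-coated wells, detected with alkaline phosphatase-linked reporter oligonucleotides, calibrated against BH10 in vitro transcripts. Virus stocks (RF, MN, IIIB) come from H9 cultures; MT-2 host cells kept in RPMI 1640, 5% FCS.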

[2] = HIV protease inhibition, HPLC method

Compound: CNC(=O)c1cccc(CN2C(=O)N(Cc3cccc(CO)c3)C(Cc3ccccc3)C(O)C(O)C2Cc2ccccc2)c1 (stereo not drawn) [11M]
- pKi ([1]; class symbols): > 8.00
- melting point: 107 to 109 °C
- IC90 (HIV-1 (RF) in MT-2 cells; class symbols): < 10 µg/mL

Compound: CCN(CC)C(=O)c1cccc(CN2C(=O)N(Cc3cccc(CO)c3)C(Cc3ccccc3)C(O)C(O)C2Cc2ccccc2)c1 (stereo not drawn) [15WJ]
- pKi ([1]; class symbols): > 8.00
- melting point: 88.9 to 90 °C
- IC90 (HIV-1 (RF) in MT-2 cells; class symbols): < 10 µg/mL

Compound: N#Cc1cccc(CN2C(=O)N(Cc3cccc(C=O)c3)C(Cc3ccccc3)C(O)C(O)C2Cc2ccccc2)c1 (stereo not drawn) [10C]
- pKi ([1]; class symbols): > 8.00
- melting point: 189 to 191 °C
- IC90 (HIV-1 (RF) in MT-2 cells; class symbols): < 10 µg/mL

Compound: O=C1N(Cc2ccc3[nH]ccc3c2)C(Cc2ccccc2)C(O)C(O)C(Cc2ccccc2)N1Cc1ccc2[nH]ccc2c1 (stereo not drawn) [15DE]
- pKi [1, 2]: > 8.00
- melting point: 170 °C (dec.)
- IC90 (HIV-1 (RF) in MT-2 cells; HIV RNA assay): < 10 µg/mL

Compound: O=C1N(Cc2cccc(C=NO)c2)C(Cc2ccccc2)C(O)C(O)C(Cc2ccccc2)N1Cc1cccc(CNO)c1 (stereo not drawn) [Example 9A]
- pKi ([1]; class symbols): 6.00 to 8.00
- melting point: 214 to 216 °C
- IC90 (HIV-1 (RF) in MT-2 cells; class symbols): < 10 µg/mL

Compound: O=C1N(Cc2ccc(CO)cc2)C(Cc2ccccc2)C(O)C(O)C(Cc2ccccc2)N1Cc1cccc([N+](=O)[O-])c1 (stereo not drawn) [15J]
- pKi ([1]; class symbols): > 8.00
- melting point: 92 °C
- IC90 (HIV-1 (RF) in MT-2 cells; class symbols): < 10 µg/mL

Compound: NC(=O)c1cccc(CN2C(=O)NC(Cc3ccccc3)C(O)C(O)C2Cc2ccccc2)c1 (stereo not drawn) [15WW]
- pKi ([1]; class symbols): > 8.00
- melting point: 114 to 116 °C
- IC90 (HIV-1 (RF) in MT-2 cells; class symbols): < 10 µg/mL

Compound: CNC(=O)c1cccc(CN2C(=O)N(Cc3cccc(C(=O)OC)c3)C(Cc3ccccc3)C(O)C(O)C2Cc2ccccc2)c1 (stereo not drawn) [11G]
- pKi ([1]; class symbols): > 8.00
- melting point: 158 to 161 °C
- IC90 (HIV-1 (RF) in MT-2 cells; class symbols): < 10 µg/mL

Compound: O=C1N(CCCCCO)C(Cc2ccccc2)C(O)C(O)C(Cc2ccccc2)N1Cc1ccc2ccccc2c1 (stereo not drawn) [Example 15VH]
- pKi ([1]; class symbols): > 8.00
- melting point: 84.6 °C
- IC90 (HIV-1 (RF) in MT-2 cells; class symbols): < 10 µg/mL

Compound: CONC(=O)c1ccc(CN2C(=O)N(Cc3ccc(C(=O)NOC)cc3)C(Cc3ccccc3)C(O)C(O)C2Cc2ccccc2)cc1 (stereo not drawn) [10S]
- pKi ([1]; class symbols): > 8.00
- melting point: 186 to 189 °C
- IC90 (HIV-1 (RF) in MT-2 cells; class symbols): < 10 µg/mL

Compound: O=C1NC(Cc2ccccc2)C(O)C(O)C(Cc2ccccc2)N1Cc1ccc(CO)cc1 (stereo not drawn) [Example 11N]
- pKi ([1]; class symbols): > 8.00
- melting point: 112 to 114 °C
- IC90 (HIV-1 (RF) in MT-2 cells; class symbols): < 10 µg/mL

Compound: O=C1N(Cc2cccnc2)C(Cc2ccccc2)C(O)C(O)C(Cc2ccccc2)N1Cc1cccc(-c2cc[nH]n2)c1 (stereo not drawn) [Example 15BU]
- pKi [1, 2]: > 8.00
- melting point: 133 to 136 °C
- IC90 (HIV-1 (RF) in MT-2 cells; HIV RNA assay): < 10 µg/mL

Compound: O=C1Nc2ccc(CN3C(=O)N(Cc4ccc5c(c4)C(=O)C(=O)N5)C(Cc4ccccc4)C(O)C(O)C3Cc3ccccc3)cc2C1=O (stereo not drawn) [15DA]
- pKi [1, 2]: > 8.00
- melting point: 196 to 200 °C
- IC90 (HIV-1 (RF) in MT-2 cells; HIV RNA assay): < 10 µg/mL

Compound: O=C1N(Cc2cccc(-c3cc[nH]n3)c2)C(Cc2ccccc2)C(O)C(O)C(Cc2ccccc2)N1Cc1ccc(O)c(O)c1 (stereo not drawn) [Example 15CC]
- pKi [1, 2]: > 8.00
- melting point: 177 to 180 °C
- IC90 (HIV-1 (RF) in MT-2 cells; HIV RNA assay): < 10 µg/mL

Compound: NC(=NO)c1cccc(CN2C(=O)N(Cc3ccc(O)cc3)C(Cc3ccccc3)C(O)C(O)C2Cc2ccccc2)c1 (stereo not drawn) [15AU]
- pKi [1, 2]: > 8.00
- melting point: 195 to 197 °C
- IC90 (HIV-1 (RF) in MT-2 cells; HIV RNA assay): < 10 µg/mL

Compound: O=C(O)c1cccc(CN2C(=O)N(Cc3ccccc3)C(Cc3ccccc3)C(O)C(O)C2Cc2ccccc2)c1 (stereo not drawn) [15WP]
- pKi ([1]; class symbols): > 8.00
- melting point: 122 to 124 °C
- IC90 (HIV-1 (RF) in MT-2 cells; class symbols): < 10 µg/mL

Compound: CCC(O)CN1C(=O)N(CC(O)CC)C(Cc2ccccc2)C(O)C(O)C1Cc1ccccc1 (stereo not drawn) [15VN]
- pKi ([1]; class symbols): < 6.00
- melting point: 99.2 °C
- IC90 (HIV-1 (RF) in MT-2 cells; class symbols): > 50 µg/mL

Compound: COC(=O)Oc1cccc(CN2C(=O)N(Cc3cccc(OC(=O)OC)c3)C(Cc3ccccc3)C(O)C(O)C2Cc2ccccc2)c1 (stereo not drawn) [Example 9G]
- pKi ([1]; class symbols): 6.00 to 8.00
- melting point: 146 to 147 °C
- IC90 (HIV-1 (RF) in MT-2 cells; class symbols): < 10 µg/mL

Compound: CCN(CC)C(=O)c1cccc(CN2C(=O)N(Cc3cccc(C(=O)N(CC)CC)c3)C(Cc3ccccc3)C(O)C(O)C2Cc2ccccc2)c1 (stereo not drawn) [15WF]
- pKi ([1]; class symbols): > 8.00
- melting point: 89 to 91 °C
- IC90 (HIV-1 (RF) in MT-2 cells; class symbols): < 10 µg/mL

Compound: CN(C)c1cccc(CN2C(=O)N(Cc3cccc(N(C)C)c3)C(Cc3ccccc3)C(O)C(O)C2Cc2ccccc2)c1 (stereo not drawn) [15I]
- pKi ([1]; class symbols): > 8.00
- melting point: 199.9 °C
- IC90 (HIV-1 (RF) in MT-2 cells; class symbols): < 10 µg/mL

Compound: O=C1N(Cc2cccc(NS(=O)(=O)C(F)(F)F)c2)C(Cc2ccccc2)C(O)C(O)C(Cc2ccccc2)N1Cc1cccc(NS(=O)(=O)C(F)(F)F)c1 (stereo not drawn) [15B]
- pKi ([1]; class symbols): > 8.00
- melting point: 141.8 °C
- IC90 (HIV-1 (RF) in MT-2 cells; class symbols): 10 to 100 µg/mL (≈ 12.5 to 125 µM)

Compound: CC(C)NC(=O)c1cccc(CN2C(=O)N(Cc3cccc(C(=O)O)c3)C(Cc3ccccc3)C(O)C(O)C2Cc2ccccc2)c1 (stereo not drawn) [15WN]
- pKi ([1]; class symbols): > 8.00
- melting point: 164 to 167 °C
- IC90 (HIV-1 (RF) in MT-2 cells; class symbols): < 10 µg/mL
